In patent US7547690B2, “Compounds for the treatment of Hepatitis C” (Bristol-Myers Squibb Company, priority 2007, dated 2009):
Where two headings read alike, the source gives them in different places.

Legend:
[1] = system: HCV replicon cells; assay: HCV replicon FRET / luciferase assay; assay type: cell-based; conditions: 50% reduction in FRET or luciferase activity in HCV replicon cells, read-out: EC50
In short: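 HCV replicon cells (with or without Renilla luciferase reporter) incubated with titrated compounds at 37° C; cytotoxicity read by Alamar blue. Replicon activity then read by NS3 cleavage of EDANS/DABCYL FRET peptide (20 μM final, 340/490 nm kinetic) or by luciferase; background from highest control-inhibitor wells subtracted; EC50 = concentration giving 50% signal reduction.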

[2] = biological target: T1, HCV NS5B (Hepatitis C virus genotype 1b, UniProt Q9WMX2); assay: HCV NS5B RdRp enzyme assay (standard / modified); assay type: biochemical; conditions: HCV RdRp genotype 1b; standard or modified assay not specified; read-out: IC50
T1 construct: The protein was expressed with an 18 amino acid C-terminal truncation to enhance the solubility; made in house; host or cells: E. coli BL21(DE3)
T1 sequence (Q9WMX2 2420-2992): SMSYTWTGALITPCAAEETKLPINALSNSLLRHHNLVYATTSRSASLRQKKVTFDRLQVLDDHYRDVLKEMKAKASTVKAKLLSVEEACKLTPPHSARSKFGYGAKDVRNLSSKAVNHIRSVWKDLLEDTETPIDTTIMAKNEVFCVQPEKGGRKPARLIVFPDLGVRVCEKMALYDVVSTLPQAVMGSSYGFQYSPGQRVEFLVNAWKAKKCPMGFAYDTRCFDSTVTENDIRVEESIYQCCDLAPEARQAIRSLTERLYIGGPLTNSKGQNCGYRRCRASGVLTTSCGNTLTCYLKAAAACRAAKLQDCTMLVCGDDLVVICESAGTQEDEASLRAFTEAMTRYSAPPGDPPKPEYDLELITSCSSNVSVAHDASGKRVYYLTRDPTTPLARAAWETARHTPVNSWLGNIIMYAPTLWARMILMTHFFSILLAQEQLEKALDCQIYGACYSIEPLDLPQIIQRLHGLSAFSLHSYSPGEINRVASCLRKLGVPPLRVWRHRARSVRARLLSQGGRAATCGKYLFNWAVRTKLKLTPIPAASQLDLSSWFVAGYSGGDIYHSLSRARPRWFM
In short: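 Genotype 1b NS5B, 18-aa C-terminal truncation, E. coli-expressed; polyA template with biotin-oligo-dT12 primer, 3H-UTP (0.29 μM UTP), pH 7.5 Hepes, 2% DMSO, 30 °C, SPA read. Standard: 28 nM enzyme, 6 nM template, 180 nM primer, 60 min. Modified: 1.75 nM enzyme, 0.36 nM template, 20 nM bead-precaptured primer, 4 h; IC50 from seven concentrations, four-parameter fit.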

| SMILES | EC50 ([1]; Hepatitis C virus) [nM] | IC50 [2] [nM] | EC50 [1] [nM] |
| --- | --- | --- | --- |
| COc1ccc2c(c1)C1CC1(C(=O)N1C3CC1CN(C)C3)Cn1c-2c(C2CCCCC2)c2ccc(C(=O)NS(=O)(=O)N3CCOCC3)cc21 (stereo not drawn) | 2.4 to 500 | 2.4 to 500 | – |
| COc1ccc2c(c1)[C@@H]1C[C@]1(C(=O)N1CCC3CCC(C1)N3C)Cn1c-2c(C2CCCCC2)c2ccc(C(=O)NS(=O)(=O)N(C)C)cc21 (stereo partly drawn) | 2.4 to 500 | 2.4 to 500 | – |
| COc1ccc2c(c1)C1CC1(C(=O)N1C3COC[C@@H]1CN(C)C3)Cn1c-2c(C2CCCCC2)c2ccc(C(=O)NS(=O)(=O)C(C)C)cc21 (stereo partly drawn) | 2.4 to 500 | 2.4 to 500 | – |
| COc1ccc2c(c1)C1CC1(C(=O)N1C3CC1CN(Cc1ccccc1)C3)Cn1c-2c(C2CCCCC2)c2ccc(C(=O)NS(=O)(=O)C3CCCC3)cc21 (stereo not drawn) | 2.4 to 500 | 2.4 to 500 | – |
| COc1ccc2c(c1)C1CC1(C(=O)N1C[C@@H]3C[C@H]1CN3C(=O)OC(C)(C)C)Cn1c-2c(C2CCCCC2)c2ccc(C(=O)NS(=O)(=O)N(C)C)cc21 (stereo partly drawn) | 2.4 to 500 | 2.4 to 500 | – |
| COc1ccc2c(c1)C1CC1(C(=O)N1CC3CCC1CN3)Cn1c-2c(C2CCCCC2)c2ccc(C(=O)NS(=O)(=O)CC(C)C)cc21 (stereo not drawn) | > 1000 | 2.4 to 500 | – |
| COc1ccc2c(c1)C1CC1(C(=O)N1[C@@H]3C[C@H]1CN(Cc1ccccc1)C3)Cn1c-2c(C2CCCCC2)c2ccc(C(=O)NS(=O)(=O)N(C)C)cc21 (stereo partly drawn) | 2.4 to 500 | 2.4 to 500 | – |
| COc1ccc2c(c1)C1CC1(C(=O)N1C3CC1CN(Cc1ccccc1)C3)Cn1c-2c(C2CCCCC2)c2ccc(C(=O)NS(=O)(=O)C3CC3)cc21 (stereo not drawn) | 2.4 to 500 | 2.4 to 500 | – |
| COc1ccc2c(c1)[C@@H]1C[C@]1(C(=O)N1C3CN(C)CC1CN(C(C)=O)C3)Cn1c-2c(C2CCCCC2)c2ccc(C(=O)NS(=O)(=O)N(C)C)cc21 | 2.4 to 500 | 2.4 to 500 | – |
| CCN1C[C@H]2C[C@@H]1CN2C(=O)C12CC1c1cc(OC)ccc1-c1c(C3CCCCC3)c3ccc(C(=O)NS(=O)(=O)C4CC4)cc3n1C2 (stereo partly drawn) [drawing 43] | 2.4 to 500 | < 20 | – |
| COc1ccc2c(c1)C1CC1(C(=O)N1C[C@H]3C[C@@H]1CN3CC(C)C)Cn1c-2c(C2CCCCC2)c2ccc(C(=O)NS(=O)(=O)N3CCC3)cc21 (stereo partly drawn) | 2.4 to 500 | 2.4 to 500 | – |
| COc1ccc2c(c1)C1CC1(C(=O)N1C[C@H]3C[C@@H]1CN3C)Cn1c-2c(C2CCCCC2)c2ccc(C(=O)NS(N)(=O)=O)cc21 (stereo partly drawn) | 2.4 to 500 | 2.4 to 500 | – |
| COc1ccc2c(c1)C1CC1(C(=O)N1C3COC[C@@H]1CN(C)C3)Cn1c-2c(C2CCCCC2)c2ccc(C(=O)NS(=O)(=O)CC(C)C)cc21 (stereo partly drawn) | 2.4 to 500 | 2.4 to 500 | – |
| CCN1C[C@H]2C[C@@H]1CN2C(=O)C12CC1c1cc(OC)ccc1-c1c(C3CCCCC3)c3ccc(C(=O)NS(N)(=O)=O)cc3n1C2 (stereo partly drawn) | 2.4 to 500 | 2.4 to 500 | – |
| COc1ccc2c(c1)C1CC1(C(=O)N1[C@@H]3C[C@H]1CN(C(=O)N(C)C)C3)Cn1c-2c(C2CCCCC2)c2ccc(C(=O)NS(=O)(=O)N(C)C)cc21 (stereo partly drawn) | 2.4 to 500 | 2.4 to 500 | – |
| COc1ccc2c(c1)C1CC1(C(=O)N1C[C@H]3C[C@@H]1CN3CC(C)C)Cn1c-2c(C2CCCCC2)c2ccc(C(=O)NS(N)(=O)=O)cc21 (stereo partly drawn) | 2.4 to 500 | 2.4 to 500 | – |
| COc1ccc2c(c1)C1CC1(C(=O)N1CCN3CCC1C3)Cn1c-2c(C2CCCCC2)c2ccc(C(=O)NS(=O)(=O)N(C)C)cc21 (stereo not drawn) | 2.4 to 500 | 2.4 to 500 | – |
| COc1ccc2c(c1)[C@@H]1C[C@]1(C(=O)N1C3CCCC1CN(C)C3)Cn1c-2c(C2CCCCC2)c2ccc(C(=O)NS(=O)(=O)N(C)C)cc21 | 2.4 to 500 | 2.4 to 500 | – |
| COc1ccc2c(c1)C1CC1(C(=O)N1C3CC1CN(C)C3)Cn1c-2c(C2CCCCC2)c2ccc(C(=O)NS(=O)(=O)C3CCCC3)cc21 (stereo not drawn) | 2.4 to 500 | 2.4 to 500 | – |
| CCN1C[C@H]2C[C@@H]1CN2C(=O)C12CC1c1cc(OC)ccc1-c1c(C3CCCCC3)c3ccc(C(=O)NS(=O)(=O)N4CCC4)cc3n1C2 (stereo partly drawn) | 2.4 to 500 | 2.4 to 500 | – |
| COc1ccc2c(c1)C1CC1(C(=O)N1C3COC[C@@H]1CN(C)C3)Cn1c-2c(C2CCCCC2)c2ccc(C(=O)NS(=O)(=O)C3CCCCC3)cc21 (stereo partly drawn) | 2.4 to 500 | 2.4 to 500 | – |

| SMILES | EC50 ([1]; Hepatitis C virus) [nM] | IC50 [2] [nM] | EC50 [1] [nM] |
| --- | --- | --- | --- |
| COc1ccc2c(c1)C1CC1(C(=O)N1C[C@@H]3C[C@H]1CN3C)Cn1c-2c(C2CCCCC2)c2ccc(C(=O)NS(C)(=O)=O)cc21 (stereo partly drawn) | 2.4 to 500 | 2.4 to 500 | – |
| CCC(C)S(=O)(=O)NC(=O)c1ccc2c(C3CCCCC3)c3n(c2c1)CC1(C(=O)N2CC4CCC2CN4)CC1c1cc(OC)ccc1-3 (stereo not drawn) | 500 to 5000 | 2.4 to 500 | – |
| COc1ccc2c(c1)C1CC1(C(=O)N1C3COCC1CN(C(C)C)C3)Cn1c-2c(C2CCCCC2)c2ccc(C(=O)NS(=O)(=O)N(C)C)cc21 (stereo not drawn) | 2.4 to 500 | 2.4 to 500 | – |
| COc1ccc2c(c1)[C@@H]1C[C@]1(C(=O)N1[C@@H]3C[C@H]1CN(Cc1ccccc1)C3)Cn1c-2c(C2CCCCC2)c2ccc(C(=O)NS(=O)(=O)N(C)C)cc21 | 2.4 to 500 | 2.4 to 500 | – |
| CCN1C[C@H]2C[C@@H]1CN2C(=O)C12CC1c1cc(OC)ccc1-c1c(C3CCCCC3)c3ccc(C(=O)NS(=O)(=O)N(C)C)cc3n1C2 (stereo partly drawn) | 2.4 to 500 | 2.4 to 500 | – |
| COc1ccc2c(c1)C1CC1(C(=O)N1C3COC[C@@H]1CN(C)C3)Cn1c-2c(C2CCCCC2)c2ccc(C(=O)NS(=O)(=O)CCC(F)(F)F)cc21 (stereo partly drawn) | 2.4 to 500 | 2.4 to 500 | – |
| COc1ccc2c(c1)C1CC1(C(=O)N1[C@@H]3C[C@H]1CN(C)C3)Cn1c-2c(C2CCCCC2)c2ccc(C(=O)NS(=O)(=O)N(C)C)cc21 (stereo partly drawn) | 2.4 to 500 | 2.4 to 500 | – |
| COc1ccc2c(c1)C1CC1(S(=O)(=O)N1C3CC1CN(C)C3)Cn1c-2c(C2CCCCC2)c2ccc(C(=O)NS(=O)(=O)C3CC3)cc21 (stereo not drawn) | 2.4 to 500 | 2.4 to 500 | – |
| COc1ccc2c(c1)C=C(C(=O)N1C3CCCC1CN(C)C3)Cn1c-2c(C2CCCCC2)c2ccc(C(=O)NS(=O)(=O)N(C)C)cc21 | 2.4 to 500 | 2.4 to 500 | – |
| COc1ccc2c(c1)C1CC1(C(=O)N1C[C@@H]3C[C@H]1CN3C)Cn1c-2c(C2CCCCC2)c2ccc(C(=O)NS(=O)(=O)N3CCC3)cc21 (stereo partly drawn) | 2.4 to 500 | 2.4 to 500 | – |
| COc1ccc2c(c1)C1CC1(C(=O)N1CC3CN(C)CC(C1)N3)Cn1c-2c(C2CCCCC2)c2ccc(C(=O)NS(=O)(=O)N(C)C)cc21 (stereo not drawn) | 2.4 to 500 | 2.4 to 500 | – |
| COc1ccc2c(c1)C1CC1(C(=O)N1CCN3CCC1CC3)Cn1c-2c(C2CCCCC2)c2ccc(C(=O)NS(=O)(=O)C3CC3)cc21 (stereo not drawn) [drawing 50] | 2.4 to 500 | 2.4 to 500 | – |
| COc1ccc2c(c1)[C@H]1C[C@@]1(C(=O)N1CC3CC1CN3C)Cn1c-2c(C2CCCCC2)c2ccc(C(=O)NS(=O)(=O)N(C)C)cc21 (stereo partly drawn) | 2.4 to 500 | 2.4 to 500 | – |
| COc1ccc2c(c1)C1CC1(C(=O)N1C3CC1CN(Cc1ccccc1)C3)Cn1c-2c(C2CCCCC2)c2ccc(C(=O)NS(=O)(=O)CCC(F)(F)F)cc21 (stereo not drawn) | 500 to 5000 | 2.4 to 500 | – |
| CCN(C)S(=O)(=O)NC(=O)c1ccc2c(C3CCCCC3)c3n(c2c1)CC1(C(=O)N2C4CC2CN(C)C4)CC1c1cc(OC)ccc1-3 (stereo not drawn) | 2.4 to 500 | 2.4 to 500 | – |
| CCN1C[C@H]2C[C@@H]1CN2C(=O)C12CC1c1cc(OC)ccc1-c1c(C3CCCCC3)c3ccc(C(=O)NS(=O)(=O)C4CC4)cc3n1C2 (stereo partly drawn) [drawing 44] | – | 2.4 to 500 | 2.4 to 500 |
| COc1ccc2c(c1)C1CC1(C(=O)N1C3CN(C)CC1CN(C(C)C)C3)Cn1c-2c(C2CCCCC2)c2ccc(C(=O)NS(=O)(=O)N(C)C)cc21 (stereo not drawn) | 2.4 to 500 | 2.4 to 500 | – |
| COc1ccc2c(c1)C1CC1(C(=O)N1CC3(C)CN(C)CC(C)(C1)C3)Cn1c-2c(C2CCCCC2)c2ccc(C(=O)NS(C)(=O)=O)cc21 (stereo not drawn) | 2.4 to 500 | 2.4 to 500 | – |
| CCCS(=O)(=O)NC(=O)c1ccc2c(C3CCCCC3)c3n(c2c1)CC1(C(=O)N2C4CC2CN(C)C4)CC1c1cc(OC)ccc1-3 (stereo not drawn) | 2.4 to 500 | 2.4 to 500 | – |
| CCC(C)S(=O)(=O)NC(=O)c1ccc2c(C3CCCCC3)c3n(c2c1)CC1(C(=O)N2C4CC2CN(Cc2ccccc2)C4)CC1c1cc(OC)ccc1-3 (stereo not drawn) | 2.4 to 500 | 2.4 to 500 | – |
| COc1ccc2c(c1)C1CC1(C(=O)N1C3CNCC1C3)Cn1c-2c(C2CCCCC2)c2ccc(C(=O)NS(=O)(=O)C3CC3)cc21 (stereo not drawn) | 2.4 to 500 | 2.4 to 500 | – |
